Reference: BigSolDB 2.1

CC(=O)c1c(C)c([N+](=O)[O-])c(C(C)(C)C)c([N+](=O)[O-])c1C
solubility (mole fraction)
Details | 273.15 K | 278.15 K | 283.15 K | 288.15 K | 293.15 K | 298.15 K | 303.15 K | 308.15 K | 313.15 K
in ethanol | 0.0016 | 0.00198 | 0.00241 | 0.00295 | 0.00354 | 0.00426 | 0.00512 | 0.00619 | 0.0074
in ethyl acetate | 0.055 | 0.0641 | 0.0742 | 0.0852 | 0.0954 | 0.111 | 0.122 | 0.139 | 0.156
in methanol | 0.00108 | 0.00128 | 0.00157 | 0.00187 | 0.00225 | 0.00272 | 0.00326 | 0.00387 | 0.00458
in n-butanol | 0.0022 | 0.00286 | 0.00368 | 0.00449 | 0.00533 | 0.00666 | 0.00812 | 0.00972 | 0.012
